Results published in the NIST ThermoML archive (doi:10.1016/j.jct.2010.06.012).
Where “and” joins values, the source holds several entries; their conditions need not be identical. Equal values may be shown once.

Conditions: Crystal, Calculated from knudsen effusion weight loss

Clc1ccc(-n2cccc2)cc1 [1-(4-chlorophenyl)-1H-pyrrole]
Conditions | vapor or sublimation pressure
295.22 K | 0.000183 kPa and 0.000176 kPa and 0.000175 kPa
297.17 K | 0.000227 kPa and 0.00022 kPa and 0.000219 kPa
299.22 K | 0.000289 kPa and 0.000279 kPa and 0.000275 kPa
301.12 K | 0.000363 kPa and 0.000364 kPa and 0.000378 kPa
303.17 K | 0.000467 kPa and 0.000463 kPa and 0.000451 kPa
305.21 K | 0.000595 kPa and 0.000571 kPa and 0.000558 kPa
307.1 K | 0.000744 kPa and 0.000715 kPa and 0.000706 kPa
309.12 K | 0.000904 kPa and 0.000892 kPa and 0.000871 kPa
311.22 K | 0.001132 kPa and 0.001115 kPa and 0.001084 kPa

Fc1ccc(-n2cccc2)cc1 [1-(4-fluorophenyl)pyrrole]
Conditions | vapor or sublimation pressure
271.14 K | 0.000157 kPa and 0.000149 kPa and 0.000152 kPa
273.16 K | 0.0002 kPa and 0.000197 kPa
275.2 K | 0.000237 kPa and 0.000236 kPa
277.18 K | 0.000303 kPa and 0.000288 kPa and 0.000313 kPa
279.18 K | 0.000396 kPa and 0.000393 kPa and 0.000391 kPa
281.18 K | 0.000509 kPa and 0.000505 kPa and 0.000497 kPa
283.12 K | 0.000688 kPa and 0.000694 kPa and 0.00068 kPa
285.13 K | 0.000863 kPa and 0.000854 kPa and 0.000832 kPa
287.17 K | 0.001072 kPa and 0.001068 kPa and 0.001064 kPa

Ic1ccc(-n2cccc2)cc1 [1-(4-iodophenyl)pyrrole]
Conditions | vapor or sublimation pressure
319.11 K | 0.000107 kPa and 0.000112 kPa and 0.000109 kPa
321.19 K | 0.000142 kPa and 0.00014 kPa and 0.000137 kPa
323.18 K | 0.000174 kPa and 0.000169 kPa
325.12 K | 0.000218 kPa and 0.000216 kPa and 0.00021 kPa
327.19 K | 0.000274 kPa and 0.00027 kPa and 0.000265 kPa
329.18 K | 0.000336 kPa and 0.000331 kPa and 0.000329 kPa
331.11 K | 0.000402 kPa and 0.000421 kPa and 0.000416 kPa
333.17 K | 0.00052 kPa and 0.000522 kPa and 0.000508 kPa
335.17 K | 0.000639 kPa and 0.000628 kPa and 0.000624 kPa
337.12 K | 0.000778 kPa and 0.000814 kPa and 0.000806 kPa
339.19 K | 0.001022 kPa and 0.001014 kPa and 0.000977 kPa
341.17 K | 0.001237 kPa and 0.001212 kPa and 0.001211 kPa
